Test results taken from patent US20080009418A1, “Selective Inhibitors” (Alchemia LTD., priority 2004, published 2008).

Legend:
Human δ-opioid (DOP) = molecular target: T1, Human δ-opioid (DOP) (Homo sapiens, UniProt P41143); test: Radioligand binding, human δ-opioid (DOP) membranes, FlashPlate, [3H]-Bremazocine; details: compound at 10 μM, [3H]-Bremazocine; for A1: inhibition of radioligand binding: FlashPlate
T1 construct: purchased Perkin Elmer Biosignal
Outline: (§1)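 Cloned human receptor membranes were coated onto FlashPlate wells and incubated with radioligand and compound (added from a 0.5 mM DMSO daughter plate) for 1 hour at room temperature in the dark. Scintillation counting gave percent inhibition, with DMSO defining total and reference ligand defining non-specific binding.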

Human κ-Opioid (KOP) = molecular target: T2, Human κ-Opioid (KOP) (Homo sapiens, UniProt P41145); test: Radioligand binding, human κ-opioid (KOP) membranes, filtration, [3H]-Diprenorphine; details: compound at 10 μM, [3H]-Diprenorphine; for A2: inhibition of radioligand binding: filtration
T2 construct: purchased Perkin Elmer Biosignal
T2 sequence (P41145 whole entry): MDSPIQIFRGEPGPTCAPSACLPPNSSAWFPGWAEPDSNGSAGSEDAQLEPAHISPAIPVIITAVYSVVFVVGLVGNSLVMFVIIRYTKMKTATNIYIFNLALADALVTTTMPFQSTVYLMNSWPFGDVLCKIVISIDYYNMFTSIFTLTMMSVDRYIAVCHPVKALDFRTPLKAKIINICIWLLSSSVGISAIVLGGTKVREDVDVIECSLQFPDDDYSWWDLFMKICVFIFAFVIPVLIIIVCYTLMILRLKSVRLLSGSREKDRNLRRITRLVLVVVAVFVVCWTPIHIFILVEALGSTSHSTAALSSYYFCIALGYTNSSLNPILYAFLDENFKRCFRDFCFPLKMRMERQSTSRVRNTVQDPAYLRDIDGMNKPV
Outline: (§2)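 Filtration binding on cloned human receptor membranes (1 Unit/well), [125I]-Substance P for NK1 and [3H]-Diprenorphine for KOP, 1 h at room temperature. Filters PEI-presoaked, washed with cold 50 mM Tris-HCl pH 7.4, counted by scintillation; percent inhibition calculated, reference ligand defining non-specific binding.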

Human Melanocortin (MC3) = molecular target: T3, Human Melanocortin (MC3) (Homo sapiens, UniProt P41968); test: Radioligand binding, human melanocortin MC3 membranes, FlashPlate, [125I]-NDP-αMSH; details: compound at 10 μM, [125I]-NDP-αMSH; for A3: inhibition of radioligand binding: FlashPlate
T3 construct: purchased Perkin Elmer Biosignal
T3 sequence (P41968 whole entry): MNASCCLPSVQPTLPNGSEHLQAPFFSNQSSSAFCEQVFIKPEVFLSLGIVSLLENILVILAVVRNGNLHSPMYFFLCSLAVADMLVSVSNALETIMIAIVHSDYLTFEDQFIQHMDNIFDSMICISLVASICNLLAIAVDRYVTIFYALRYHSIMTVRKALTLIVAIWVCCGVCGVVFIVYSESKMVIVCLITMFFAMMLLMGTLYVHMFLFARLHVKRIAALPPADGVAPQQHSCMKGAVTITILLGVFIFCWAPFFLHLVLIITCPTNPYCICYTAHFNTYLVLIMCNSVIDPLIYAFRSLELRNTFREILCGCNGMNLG
Outline: as §1

Human Melanocortin (MC4) = molecular target: T4, Human Melanocortin (MC4) (Homo sapiens, UniProt P32245); test: Radioligand binding, human melanocortin MC4 membranes, FlashPlate, [125I]-NDP-αMSH; details: compound at 10 μM, [125I]-NDP-αMSH; for A4: inhibition of radioligand binding: FlashPlate
T4 construct: purchased Perkin Elmer Biosignal
T4 sequence (P32245 whole entry): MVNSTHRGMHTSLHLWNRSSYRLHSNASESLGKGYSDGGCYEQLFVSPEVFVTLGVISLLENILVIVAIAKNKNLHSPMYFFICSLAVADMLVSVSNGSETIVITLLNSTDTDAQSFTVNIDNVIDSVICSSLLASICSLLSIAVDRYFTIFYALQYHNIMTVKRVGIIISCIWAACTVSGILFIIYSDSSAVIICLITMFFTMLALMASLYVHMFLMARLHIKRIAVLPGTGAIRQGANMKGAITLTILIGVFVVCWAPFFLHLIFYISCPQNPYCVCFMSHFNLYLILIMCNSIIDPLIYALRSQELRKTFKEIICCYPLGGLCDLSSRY
Outline: as §1

Human melanocortin (MC5) = molecular target: T5, Human melanocortin (MC5) (Homo sapiens, UniProt P33032); test: Radioligand binding, human melanocortin MC5 membranes, FlashPlate, [125I]-NDP-αMSH; details: compound at 10 μM, [125I]-NDP-αMSH; for A5: inhibition of radioligand binding: FlashPlate
T5 construct: purchased Perkin Elmer Biosignal
T5 sequence (P33032 whole entry): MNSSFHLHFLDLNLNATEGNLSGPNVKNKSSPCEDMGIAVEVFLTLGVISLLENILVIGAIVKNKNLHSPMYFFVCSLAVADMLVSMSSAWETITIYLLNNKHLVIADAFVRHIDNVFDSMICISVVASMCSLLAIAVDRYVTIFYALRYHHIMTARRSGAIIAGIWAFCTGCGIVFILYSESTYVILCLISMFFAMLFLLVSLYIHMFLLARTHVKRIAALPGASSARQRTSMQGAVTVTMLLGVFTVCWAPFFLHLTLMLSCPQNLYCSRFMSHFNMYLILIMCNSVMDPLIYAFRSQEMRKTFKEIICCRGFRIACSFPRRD
Outline: as §1

[1] = molecular target: T6, Human melanin-concentrating hormone (MCH1) (Homo sapiens, UniProt Q99705); test: Radioligand binding, human melanin-concentrating hormone MCH1 membranes, FlashPlate, [125I]-S36057; details: compound at 10 μM; for A6: inhibition of radioligand binding: [125I]-S36057, FlashPlate
T6 construct: purchased Perkin Elmer Biosignal
T6 sequence (Q99705 whole entry): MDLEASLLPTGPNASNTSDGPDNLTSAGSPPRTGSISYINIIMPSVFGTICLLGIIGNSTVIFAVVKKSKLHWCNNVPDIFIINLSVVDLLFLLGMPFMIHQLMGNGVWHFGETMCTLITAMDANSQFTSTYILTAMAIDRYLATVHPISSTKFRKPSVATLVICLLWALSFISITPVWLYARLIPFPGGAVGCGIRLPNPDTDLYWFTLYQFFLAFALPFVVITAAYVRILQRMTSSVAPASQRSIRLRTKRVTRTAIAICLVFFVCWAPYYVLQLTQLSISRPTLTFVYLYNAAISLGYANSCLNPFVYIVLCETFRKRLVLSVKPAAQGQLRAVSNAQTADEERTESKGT
Outline: as §1

Human μ-opioid (MOP) = molecular target: T7, Human μ-opioid (MOP) (Homo sapiens, UniProt P35372); test: Radioligand binding, human μ-opioid (MOP) membranes, FlashPlate, [3H]-Naloxone; details: compound at 10 μM, [3H]-Naloxone; for A7: inhibition of radioligand binding: FlashPlate
T7 construct: purchased Perkin Elmer Biosignal
T7 sequence (P35372 whole entry): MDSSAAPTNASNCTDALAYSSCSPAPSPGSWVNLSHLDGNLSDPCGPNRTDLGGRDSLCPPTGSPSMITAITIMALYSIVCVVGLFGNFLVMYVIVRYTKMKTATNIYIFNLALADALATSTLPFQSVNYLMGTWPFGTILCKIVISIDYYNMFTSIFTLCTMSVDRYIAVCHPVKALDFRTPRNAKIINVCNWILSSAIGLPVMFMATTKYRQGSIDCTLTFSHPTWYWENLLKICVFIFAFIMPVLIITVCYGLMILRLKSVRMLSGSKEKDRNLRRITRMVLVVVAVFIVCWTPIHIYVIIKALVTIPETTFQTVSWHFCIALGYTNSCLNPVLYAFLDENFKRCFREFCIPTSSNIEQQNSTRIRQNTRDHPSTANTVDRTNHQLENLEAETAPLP
Outline: as §1

Human neurokinin (NK1) = molecular target: T8, Human neurokinin (NK1) (Homo sapiens, UniProt P25103); test: Radioligand binding, human neurokinin NK1 membranes, filtration, [125I]-Substance P; details: compound at 10 μM, [125I]-Substance P; for A8: inhibition of radioligand binding: filtration
T8 construct: purchased Perkin Elmer Biosignal
T8 sequence (P25103 whole entry): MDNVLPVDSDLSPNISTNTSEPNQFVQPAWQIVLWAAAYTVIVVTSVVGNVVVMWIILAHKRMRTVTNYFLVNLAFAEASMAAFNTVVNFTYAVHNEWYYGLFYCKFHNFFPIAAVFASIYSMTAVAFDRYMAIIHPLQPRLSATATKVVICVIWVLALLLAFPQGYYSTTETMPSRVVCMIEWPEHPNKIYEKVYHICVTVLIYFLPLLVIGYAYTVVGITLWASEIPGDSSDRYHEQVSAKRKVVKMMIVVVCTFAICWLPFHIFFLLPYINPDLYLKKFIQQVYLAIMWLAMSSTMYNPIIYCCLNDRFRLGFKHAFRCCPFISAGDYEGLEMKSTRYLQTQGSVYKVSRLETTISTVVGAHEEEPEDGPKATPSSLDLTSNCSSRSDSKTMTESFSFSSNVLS
Outline: as §2

[2] = molecular target: T9, Human neuropeptide Y (NPY-Y1) (Homo sapiens, UniProt P25929); test: Radioligand binding, human neuropeptide Y NPY-Y1 membranes, FlashPlate, [125I]-PYY; details: compound at 10 μM, [125I]-PYY; for A9: inhibition of radioligand binding: FlashPlate
T9 construct: purchased Perkin Elmer Biosignal
T9 sequence (P25929 1-384): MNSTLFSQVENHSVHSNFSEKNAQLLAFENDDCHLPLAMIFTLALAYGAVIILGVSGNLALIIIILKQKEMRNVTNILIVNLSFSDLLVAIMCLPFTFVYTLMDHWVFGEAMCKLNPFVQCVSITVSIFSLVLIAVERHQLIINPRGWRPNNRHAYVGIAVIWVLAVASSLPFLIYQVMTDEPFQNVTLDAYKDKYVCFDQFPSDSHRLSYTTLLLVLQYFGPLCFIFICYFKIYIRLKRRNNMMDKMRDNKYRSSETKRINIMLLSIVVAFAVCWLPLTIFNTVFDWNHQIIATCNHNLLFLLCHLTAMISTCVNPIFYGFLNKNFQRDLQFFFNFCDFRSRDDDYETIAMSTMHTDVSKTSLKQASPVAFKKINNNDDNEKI
Outline: as §1

Human opioid (ORL1) = molecular target: T10, Human opioid (ORL1) (Homo sapiens, UniProt P41146); test: Radioligand binding, human opioid ORL1 membranes, FlashPlate, [125I]-Nociceptin; details: compound at 10 μM, [125I]-Nociceptin; for A10: inhibition of radioligand binding: FlashPlate
T10 construct: purchased Perkin Elmer Biosignal
T10 sequence (P41146 whole entry): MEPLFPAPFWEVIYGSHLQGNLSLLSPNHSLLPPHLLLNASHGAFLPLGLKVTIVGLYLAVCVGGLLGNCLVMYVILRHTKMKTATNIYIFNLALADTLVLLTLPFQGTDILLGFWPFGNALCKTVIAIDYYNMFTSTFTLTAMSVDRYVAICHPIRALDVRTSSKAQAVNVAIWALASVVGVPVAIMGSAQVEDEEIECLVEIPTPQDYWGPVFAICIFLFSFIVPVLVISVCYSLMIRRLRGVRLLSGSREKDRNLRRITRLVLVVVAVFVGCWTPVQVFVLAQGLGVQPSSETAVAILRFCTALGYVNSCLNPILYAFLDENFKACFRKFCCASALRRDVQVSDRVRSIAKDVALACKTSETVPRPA
Outline: as §1

Mouse urotensin (mUR2) = molecular target: T11, Mouse urotensin (mUR2) (Mus musculus, UniProt Q8VIH9); test: Radioligand binding, mouse urotensin mUR2 membranes, FlashPlate, [125I]-Urotensin II; details: compound at 10 μM, [125I]-Urotensin II; for A11: inhibition of radioligand binding: FlashPlate
T11 construct: purchased Perkin Elmer Biosignal
T11 sequence (Q8VIH9 1-385): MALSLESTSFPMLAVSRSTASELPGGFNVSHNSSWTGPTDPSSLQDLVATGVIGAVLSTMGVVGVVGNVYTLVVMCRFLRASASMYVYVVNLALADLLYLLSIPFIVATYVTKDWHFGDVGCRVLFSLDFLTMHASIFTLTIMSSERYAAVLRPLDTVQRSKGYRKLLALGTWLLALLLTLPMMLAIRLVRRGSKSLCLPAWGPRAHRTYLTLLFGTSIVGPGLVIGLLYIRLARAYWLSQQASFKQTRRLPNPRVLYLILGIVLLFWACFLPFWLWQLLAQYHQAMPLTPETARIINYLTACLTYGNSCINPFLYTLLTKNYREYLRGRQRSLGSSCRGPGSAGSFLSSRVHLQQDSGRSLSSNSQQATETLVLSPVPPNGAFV
Outline: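 Cloned mouse urotensin (mUR2) receptor membranes from Perkin Elmer Biosignal were immobilized in FlashPlate microplates using a proprietary coating. Each well got 19.5 μl buffer, then 0.5 μl of DMSO, reference ligand, or compound. Adding 5 μl of [125I]-Urotensin II, diluted to 5× final concentration in binding buffer, started binding. Plates were sealed with TopSeal-A and incubated 1 hour at room temperature in the dark. Wells were counted for 30 seconds each on a TopCount after a 60-second delay, and percentage inhibition was calculated.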

T1 sequence (P41143 whole entry): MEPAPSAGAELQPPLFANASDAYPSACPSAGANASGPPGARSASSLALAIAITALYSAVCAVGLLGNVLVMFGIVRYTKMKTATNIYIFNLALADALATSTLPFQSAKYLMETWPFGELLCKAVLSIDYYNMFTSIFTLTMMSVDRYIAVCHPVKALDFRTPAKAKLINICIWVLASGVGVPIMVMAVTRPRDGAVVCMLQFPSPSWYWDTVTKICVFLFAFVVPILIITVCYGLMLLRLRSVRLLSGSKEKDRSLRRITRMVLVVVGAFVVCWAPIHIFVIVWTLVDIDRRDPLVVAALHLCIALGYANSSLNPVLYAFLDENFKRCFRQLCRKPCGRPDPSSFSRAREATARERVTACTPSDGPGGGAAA

Compound	A1: inhibition of radioligand binding (Human δ-opioid (DOP))	A2: inhibition of radioligand binding (Human κ-Opioid (KOP))	A3: inhibition of radioligand binding (Human Melanocortin (MC3))	A4: inhibition of radioligand binding (Human Melanocortin (MC4))	A5: inhibition of radioligand binding (Human melanocortin (MC5))	A6: inhibition of radioligand binding [1]	A7: inhibition of radioligand binding (Human μ-opioid (MOP))	A8: inhibition of radioligand binding (Human neurokinin (NK1))	A9: inhibition of radioligand binding [2]	A10: inhibition of radioligand binding (Human opioid (ORL1))	A11: inhibition of radioligand binding (Mouse urotensin (mUR2))	further results
CSC1OC(COCc2ccccc2)C(O)C(OCc2ccc(Cl)cc2)C1NC(=O)CCCNC(=N)N (stereo not drawn) [compound 268]	− (“−” indicates less than 50% inhibition at 10 μM)	− (“−” indicates less than 50% inhibition at 10 μM)	− (“−” indicates less than 50% inhibition at 10 μM)	− (“−” indicates less than 50% inhibition at 10 μM)	+ (“+” indicates greater than 50% inhibition at 10 μM)	− (“−” indicates less than 50% inhibition at 10 μM)	− (“−” indicates less than 50% inhibition at 10 μM)	+ (“+” indicates greater than 50% inhibition at 10 μM)	− (“−” indicates less than 50% inhibition at 10 μM)	− (“−” indicates less than 50% inhibition at 10 μM)	− (“−” indicates less than 50% inhibition at 10 μM)	
COC[C@H]1OC(OCCc2ccccc2)[C@H](NC(=O)CCCN)[C@@H](OCc2ccc3ccccc3c2)[C@@H]1O (single isomer, unassigned) [compound 346]												A1: inhibition of radioligand binding, human δ-opioid (DOP) (Human δ-opioid (DOP)): − (“−” indicates less than 50% inhibition at 10 μM); A2: inhibition of radioligand binding, human κ-opioid (KOP) (Human κ-Opioid (KOP); 10 µM): + (“+” indicates greater than 50% inhibition at 10 μM); A3: inhibition of radioligand binding, human melanocortin (MC3) (Human Melanocortin (MC3); 10 µM): + (“+” indicates greater than 50% inhibition at 10 μM); A4: inhibition of radioligand binding, human melanocortin (MC4) (Human Melanocortin (MC4); 10 µM): + (“+” indicates greater than 50% inhibition at 10 μM); A5: inhibition of radioligand binding, human melanocortin (MC5) (Human melanocortin (MC5); 10 µM): + (“+” indicates greater than 50% inhibition at 10 μM); A6: inhibition of radioligand binding, human melanin-concentrating hormone (MCH1) ([1]; [125I]-S36057, 10 µM): + (“+” indicates greater than 50% inhibition at 10 μM); A7: inhibition of radioligand binding, human μ-opioid (MOP) (Human μ-opioid (MOP); 10 µM): + (“+” indicates greater than 50% inhibition at 10 μM); A8: inhibition of radioligand binding, human neurokinin (NK1) (Human neurokinin (NK1)): + (“+” indicates greater than 50% inhibition at 10 μM); A9: inhibition of radioligand binding, human neuropeptide Y (NPY-Y1) [2]: − (“−” indicates less than 50% inhibition at 10 μM); A10: inhibition of radioligand binding, human opioid (ORL1) (Human opioid (ORL1); 10 µM): + (“+” indicates greater than 50% inhibition at 10 μM); A11: inhibition of radioligand binding, mouse urotensin (mUR2) (Mouse urotensin (mUR2); 10 µM): + (“+” indicates greater than 50% inhibition at 10 μM)
COCC1OC(OCc2ccccc2)C(NC(=O)CCNC(=N)N)C(OCc2ccc3ccccc3c2)C1O (stereo not drawn) [compound 191]	− (“−” indicates less than 50% inhibition at 10 μM)	− (“−” indicates less than 50% inhibition at 10 μM)	− (“−” indicates less than 50% inhibition at 10 μM)	+ (“+” indicates greater than 50% inhibition at 10 μM)	+ (“+” indicates greater than 50% inhibition at 10 μM)	+ (“+” indicates greater than 50% inhibition at 10 μM)	− (“−” indicates less than 50% inhibition at 10 μM)	+ (“+” indicates greater than 50% inhibition at 10 μM)	− (“−” indicates less than 50% inhibition at 10 μM)	− (“−” indicates less than 50% inhibition at 10 μM)	− (“−” indicates less than 50% inhibition at 10 μM)	
